Experimental data taken from patent US20150272874A1, “PULMONARY DISEASE-SPECIFIC THERAPEUTIC AGENT” (CARDIO INCORPORATED, priority 2012, published 2015).
Where “and” joins values, the source holds several entries; their conditions need not be identical. Identical values can stand only once. Counter-ions that a name gives are not always drawn.

Columns and labels:
[1] = Maximum tolerated oral dose without blood-pressure-lowering effect; format: in vivo
[2] = test system: MCT-induced mild pulmonary hypertension model; conditions: mild disease model; Am J Respir Crit Care Med 169: 34-38-2004; cited from earlier work
[3] = test system: monocrotaline (MCT) pulmonary hypertension models; assay: Pharmacological Effect Test 5: combined effect of ozagrel hydrochloride with Compounds 3 and 7, survival; format: in vivo, Slc;Wistar female rats; conditions: oral twice a day until Day 42; Compound 3 or 7 0.1 mg/kg, ozagrel hydrochloride 100 mg/kg, alone or combined
Protocol: After Slc;Wistar female rats (5 weeks old) were anesthetized with inhaled isoflurane, an aqueous monocrotaline (MCT) solution was subcutaneously administered into the dorsal region of each rat at a dose of 60 mg/kg (an injection volume of 3 mL/Kg) using a disposable syringe and a 27G disposable injection needle to prepare pulmonary hypertension models.
From immediately after the MCT administration until Day 42, test substances were repeatedly administered orally twice a day as shown in the following table.
The test substances were suspended in 0.5% aqueous CMC-Na solutions, and the aqueous solutions were orally administered repeatedly at a dose of 5 mL/kg.

[4] = cited from earlier work
TXA2 synthetase = molecular target: T1, TXA2 synthetase (Rattus norvegicus, UniProt P49430); assay: Dose completely inhibiting TXA2 synthetase; format: in vivo; conditions: oral dose
T1 construct: endogenous in cells; host or cells: Whole animal dosed in vivo (rat inferred)
T1 sequence (P49430 1-533): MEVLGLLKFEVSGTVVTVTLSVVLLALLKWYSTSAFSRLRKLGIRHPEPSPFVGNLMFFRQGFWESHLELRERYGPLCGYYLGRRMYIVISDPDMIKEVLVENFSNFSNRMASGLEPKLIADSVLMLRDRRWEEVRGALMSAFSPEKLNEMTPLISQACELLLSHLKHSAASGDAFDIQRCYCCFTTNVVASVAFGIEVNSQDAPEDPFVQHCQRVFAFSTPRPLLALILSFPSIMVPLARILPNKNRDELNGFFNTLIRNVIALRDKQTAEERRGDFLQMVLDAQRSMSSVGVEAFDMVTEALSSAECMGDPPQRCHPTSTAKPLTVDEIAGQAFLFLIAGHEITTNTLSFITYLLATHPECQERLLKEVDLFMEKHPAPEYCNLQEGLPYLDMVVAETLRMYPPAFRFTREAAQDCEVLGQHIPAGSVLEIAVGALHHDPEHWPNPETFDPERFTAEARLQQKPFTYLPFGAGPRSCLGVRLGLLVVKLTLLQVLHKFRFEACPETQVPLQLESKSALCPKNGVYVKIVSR

[5] = cited from earlier work; remark: listed apart in the source
blood TXA2 concentration = conditions: MCT rat models; Am J Respir Crit Care Med 172, 1575-1580 (2005); cited from earlier work
[6] = Pharmacological Effect Test 3: Compound 1 content of the lungs (LC/MS/MS); format: in vivo, Slc;Wistar male rats; conditions: for Concentration of Compound 1 in the tissue: lung, individual animals, 1 mg/kg
Protocol: Further, the Compound 1 contents of the lungs in Groups 3 and 4 were measured.
A four-fold amount of a mixture of distilled water and ethanol relative to the lung weight was added to form a homogenate. Acetonitrile was added to a part of the homogenate and the resulting mixture was stirred. The centrifuged supernatant was collected and concentrated. After the concentrate was dissolved in a solvent, LC/MS/MS measurement was performed under the same conditions as in Preparation Test Example 2 to determine Compound 1 content of the lungs.

[7] = test system: Normal human newborn foreskin dermal fibroblasts (Fibrocell NHDF (NB)); assay: Pharmacological Effect Test 6: production of cytokines (ELISA) and PGs (EIA); format: cell-based; conditions: 1 μM, 72 hours, n=3, M ± S.E.
Protocol: Normal human newborn foreskin dermal fibroblasts (Fibrocell NHDF (NB)) provided from Kurabo Industries, Ltd., were cultured to confluency at […] (DMEM 10% FBS). Twenty-four hours after replacing the medium with (serum-free) DMEM, the medium was replaced with DMEM (0.2% FBS), and Compound 1 (1 μM) and a solvent (DMSO) was added. The cells were cultured for 72 hours (n=3).
Cytokines in the culture were measured by ELISA, and prostaglandins were measured by EIA.
PGI2 was measured by using a degradation product of PGI2 (6-keto-PGF1α).

In the case of `CC#CC[C@@H](C)[C@H](O)/C=C/[C@@H]1[C@H]2c3cccc(CCCC(=O)[O-])c3O[C@H]2C[C@H]1O.[Na+]` (racemic) [Compound 3, sodium (±)-(1R,2R,3aS,8bS)-2,3,3a,8b-tetrahydro-2-hydroxy-1-[(E)-(3S,4RS)-3-hydroxy-4-methyl-1-octen-6-ynyl]-1H-cyclopenta[b]benzofuran-5-butanoate], the MTD ([1]; Slc:Wistar, rat, in vivo, read-out: maximum tolerated dose that does not show blood-pressure-lowering effect) is given as 0.1 mg/kg, the “combined effect with a PDEV inhibitor (sildenafil)” value [2] is given as “synergistic effect” and the efficacy administered alone [2] is given as “efficacious”. For the same compound, the “survival rate vs medium-administered group” value [3] was “no survival prolongation effect”, the long-term effects ([4]; after 1 year) was “no significant difference” and the exercise tolerance ([4]; relatively short-term (after 12 weeks)) was “improved”.

With `O=C(O)/C=C/c1ccc(Cn2ccnc2)cc1` [ozagrel hydrochloride] the “survival rate vs medium-administered group” value [3] was “no survival prolongation effect” and the “amount that completely inhibits the TXA2 synthetase” value (TXA2 synthetase) was 100 mg/kg.

In the case of `CCCCC[C@H](O)/C=C/[C@@H]1[C@H]2C/C(=C/CCCC(=O)O)O[C@H]2C[C@H]1O` [Epoprostenol sodium, reference compound], the half-life [5] is given as “about 6 minutes” and the “blood TXA2 concentration” value (blood TXA2 concentration) is given as “further increases”.

With `O=C(O)COc1cccc2c1CCC=C2CCO/N=C(\c1ccccc1)c1cccnc1` [Compound 1, (E)-[5-[2-[1-phenyl-1-(3-pyridyl)methylideneaminooxy]ethyl]-7,8-dihydronaphthalen-1-yloxy]acetic acid] the “average concentration in lung tissue” value ([6]; Group 3: Preparation Example 1 single i.v. 1 mg/kg) was 76.35 ng/g, the “average concentration in lung tissue” value ([6]; Group 4: Preparation Example 1 single s.c. 1 mg/kg) was 0.659 ng/g and the “concentration in lung tissue, intravenous compared to subcutaneous injection” value ([6]; i.v. 1 mg/kg vs s.c. 1 mg/kg) was “about 120 fold”. The “ratio of Group 3 to Group 4, concentration in lung tissue” value ([6]; i.v. 1 mg/kg vs s.c. 1 mg/kg) was 115.9, the “Concentration of Compound 1 in the tissue” value ([6]; Group 3 (1 mg/kg) of Preparation Example 1) was 50.0 ng/g and 99.2 ng/g and 45.2 ng/g and 111 ng/g and the “Concentration of Compound 1 in the tissue” value ([6]; Group 4 (1 mg/kg) as printed, Preparation Example 1) was 1.06 ng/g and 0.258 ng/g. The “6-keto-PGF1α (PGI2)” value [7] was 44.5 ± 4.014 pg/mL, the G-CSF [7] was 28.71 ± 6.110 pg/mL and the HGF [7] was 102.60 ± 15.658 pg/mL. The HMGB1 [7] was 1.480 ± 0.147 ng/mL, the PGE2 [7] was 38.1 ± 6.392 and the SDF-1α [7] was 2457.46 ± 231.884 pg/mL. For the same compound, the VEGF [7] was 38.44 ± 11.857 pg/mL and the “blood TXA2 concentration” value (blood TXA2 concentration) was “inhibits an increase”.

With `CCCC[C@H](C)C[C@H](O)/C=C/[C@H]1[C@H](O)CC(=O)[C@@H]1CC(=O)CCCCC(=O)OC` [Compound 7, 17S,20-dimethyl-6-oxo-prostaglandin E1 methyl ester] the “maximum tolerated dose that does not show blood-pressure-lowering effect” value [1] was 0.1 mg/kg and the “survival rate vs medium-administered group” value [3] was “no survival prolongation effect”.
